This is an account of results in US10087178B2, “Substituted spiropyrido[1,2-a]pyrazine derivative and medicinal use thereof as HIV integrase inhibitor” (priority 2012, dated 2018).

Each structure is given as a SMILES string. Structures can show the parent of a compound that is named as a salt.

Usually EC50 stands for the concentration giving half of the maximal effect.

For one experiment, the system named is HIV-1 NL4-3 strain. As to the kind of experiment: Evaluation of antiviral activity: acute infection system of MT-4 cell with HIV-1 NL4-3 strain. In kind it is cell-based. To be noted: Human immunodeficiency virus 1, NL43, MT4, 120 h, MT-4 cells infected with HIV-1 NL4-3 strain (MOI 0.05), cultured 5 days, Cell Titer-Glo; read-out: antiviral activity (EC50). (In general: ATP-based viability assays read luminescence as a measure of living cells.)
Turning to `CO[C@H]1C[C@@]2(Cn3cc(C(=O)NCc4ccc(F)cc4F)c(=O)c(O)c3C(=O)N2C(C)C)C1` [Example S52, N-(2,4-difluorobenzyl)-9′-hydroxy-2′-isopropyl-trans-3-methoxy-1′,8′-dioxo-1′,2′,4′,8′-tetrahydrospiro[cyclobutane-1,3′-pyrido[1,2-a]pyrazine]-7′-carboxamide hydrochloride], the concentration for a half-maximal effect (EC50) was determined as 3.5 nM.
With `CCO[C@H]1C[C@]2(Cn3cc(C(=O)NCc4cccc(Cl)c4F)c(=O)c(O)c3C(=O)N2CC)C1` [Example S57, N-(3-chloro-2-fluorobenzyl)- cis-3-ethoxy-2′-ethyl-9′-hydroxy-1′,8′-dioxo-1′,2′,4′,8′-tetrahydrospiro[cyclobutane-1,3′-pyrido[1,2-a]pyrazine]-7′-carboxamide hydrochloride], the EC50 worked out at 4.7 nM.
With `CNC(=O)[C@H]1C[C@]2(CN(C(C)C)C(=O)c3c(O)c(=O)c(C(=O)NCc4ccc(F)cc4F)cn32)C1` [Example S30, N^7′-(2,4-difluorobenzyl)-9′-hydroxy-2′-isopropyl-N^3-methyl-1′,8′-dioxo-1′,2′,3′,8′-tetrahydrospiro[cyclobutane-1,4′-pyrido[1,2-a]pyrazine]- cis-3,7′-dicarboxamide hydrochloride], the EC50 is 170 nM.
As to `CC(C)N1C[C@]2(C[C@H](OS(C)(=O)=O)C2)n2cc(C(=O)NCc3ccc(F)cc3F)c(=O)c(O)c2C1=O` [Example S35, 7′-(2,4-difluorobenzylcarbamoyl)-9′-hydroxy-2′-isopropyl-1′,8′-dioxo-1′,2′,3′,8′-tetrahydrospiro[cyclobutane-1,4′-pyrido[1,2-a]pyrazine]- cis-3-yl methanesulfonate hydrochloride], the EC50 came out at 7.3 nM.
Same read-out and setting: under `COC[C@H]1C[C@]2(CN(C)C(=O)c3c(OC(=O)c4cccc(C(=O)O)c4)c(=O)c(C(=O)NCc4cccc(Cl)c4F)cn32)C1` [Example 40, Monosodium 3-{[7′-(3-chloro-2-fluorobenzylcarbamoyl)-cis-3-(methoxymethyl)-2‘-methyl-’,8′-dioxo-1′,2′,3′,8′-tetrahydrospiro[cyclobutane-1,4′-pyrido[1,2-a]pyrazin]-9′-yloxy]carbonyl}benzoate] stands 1 nM.
Same read-out and setting: in the case of `COC[C@H]1C[C@@]2(CN(C)C(=O)c3c(O)c(=O)c(C(=O)NCc4cccc(Cl)c4F)cn32)C1` [Example 27, N-(3-chloro-2-fluorobenzyl)-9′-hydroxy-trans-3-(methoxymethyl)-2′-methyl-1′,8′-dioxo-1′,2′,3′,8′-tetrahydrospiro[cyclobutane-1,4′-pyrido[1,2-a]pyrazine]-7′-carboxamide] it was 1.5 nM; in that of `CCN1C[C@]2(C[C@H](COC)C2)n2cc(C(=O)NCc3cccc(Cl)c3F)c(=O)c(O)c2C1=O` [Example S47, N-(3-chloro-2-fluorobenzyl)-2′-ethyl-9′-hydroxy-cis-3-(methoxymethyl)-1′,8′-dioxo-1′,2′,3′,8′-tetrahydrospiro[cyclobutane-1,4′-pyrido[1,2-a]pyrazine]-7′-carboxamide hydrochloride], 3.5 nM.
Consider `COc1ccc(CNC(=O)c2cn3c(c(O)c2=O)C(=O)N(C)C[C@]32C[C@@H](CO)C2)c(F)c1Cl` [Example S49], for which the half-maximal effective concentration (EC50) is 65 nM.
In the case of `COC[C@H]1C[C@]2(CN(C)C(=O)c3c(OC(=O)c4ccc(C)cc4)c(=O)c(C(=O)NCc4cccc(Cl)c4F)cn32)C1` [Example S72, 7′-(3-chloro-2-fluorobenzylcarbamoyl)-cis-3-(methoxymethyl)-2′-methyl-1′,8′-dioxo-1′,2′,3′,8′-tetrahydrospiro[cyclobutane-1,4′-pyrido[1,2-a]pyrazin]-9′-yl 4-methylbenzoate], the EC50 worked out at 0.9 nM.

Still in this experiment, the particulars now being: Human immunodeficiency virus 1, NL43, MT4, 120 h, antiviral activity; MT-4 cells infected with HIV-1 NL4-3 (MOI 0.05), 5 days culture, Cell Titer-Glo luminescence.
As to `CC(C)N1C[C@@]2(C[C@@H]2CO)n2cc(C(=O)NCc3ccc(F)cc3F)c(=O)c(O)c2C1=O` [Example 9, (1S,2S)—N-(2,4-difluorobenzyl)-9′-hydroxy-2-(hydroxymethyl)-2′-isopropyl-1′,8′-dioxo-1′,2′,3′,8′-tetrahydrospiro[cyclopropane-1,4′-pyrido[1,2-a]pyrazine]-7′-carboxamide hydrochloride], the midpoint of the response, the EC50, lay at 5.6 nM.
In turn, `COC[C@@H]1C[C@]12CN(C(C)C)C(=O)c1c(O)c(=O)c(C(=O)NCc3ccc(F)cc3F)cn12` [Example 12, (1R,2R)—N-(2,4-difluorobenzyl)-9′-hydroxy-2′-isopropyl-2-(methoxymethyl)-1′,8′-dioxo-1′,2′,3′,8′-tetrahydrospiro[cyclopropane-1,4′-pyrido[1,2-a]pyrazine]-7′-carboxamide hydrochloride] returned an EC50 of 5 nM.
Same read-out and setting: under `CC(C)N1C[C@]2(C[C@@H]2CO)n2cc(C(=O)NCc3ccc(F)cc3F)c(=O)c(O)c2C1=O` [Example 13, (1R,2S)—N-(2,4-difluorobenzyl)-9′-hydroxy-2-(hydroxymethyl)-2′-isopropyl-1′,8′-dioxo-1′,2′,3′,8′-tetrahydrospiro[cyclopropane-1,4′-pyrido[1,2-a]pyrazine]-7′-carboxamide hydrochloride] stands 5.4 nM.

Still in this experiment, the particulars now being: Human immunodeficiency virus 1, NL43, MT4, 120 h, antiviral activity; MT-4 cells infected with HIV-1 NL4-3 (MOI 0.05), 5 days culture, Cell Titer-Glo luminescence; read-out: EC50.
In the case of `COC[C@@H]1C[C@@]12CN(C(C)C)C(=O)c1c(O)c(=O)c(C(=O)NCc3ccc(F)cc3F)cn12` [Example 16, (1S,2R)—N-(2,4-difluorobenzyl)-9′-hydroxy-2′-isopropyl-2-(methoxymethyl)-1′,8′-dioxo-1′,2′,3′,8′-tetrahydrospiro[cyclopropane-1,4′-pyrido[1,2-a]pyrazine]-7′-carboxamide], the 50% effective concentration (EC50) was 6.1 nM.
Same read-out and setting: under `CCN1C(=O)c2c(O)c(=O)c(C(=O)NCc3cccc(Cl)c3F)cn2C[C@@]12C[C@@H]2COC` [Example 17, (1S,2S)—N-(3-chloro-2-fluorobenzyl)-2′-ethyl-9′-hydroxy-2-(methoxymethyl)-1′,8′-dioxo-1′,2′,4′,8′-tetrahydrospiro[cyclopropane-1,3′-pyrido[1,2-a]pyrazine]-7′-carboxamide] stands 3.4 nM.
For `CO[C@H]1C[C@@]2(CN(C(C)C)C(=O)c3c(O)c(=O)c(C(=O)NCc4ccc(F)cc4F)cn32)C1` [Example S5, N-(2,4-difluorobenzyl)-9′-hydroxy-2′-isopropyl-trans-3-methoxy-1′,8′-dioxo-1′,2′,3′,8′-tetrahydrospiro[cyclobutane-1,4′-pyrido[1,2-a]pyrazine]-7′-carboxamide hydrochloride], the half-maximal effective concentration (EC50) is 4.4 nM.

The same experiment, now with this note: Human immunodeficiency virus 1, NL43, MT4, 120 h, read-out: antiviral activity (EC50), MT-4 cells infected with HIV-1 NL4-3 strain (MOI 0.05), cultured 5 days, Cell Titer-Glo.
`CN1C[C@@]2(C[C@@H]2CO)n2cc(C(=O)NCc3ccc(F)cc3F)c(=O)c(O)c2C1=O` [Example T4, (1S,2S)-N-(2,4-difluorobenzyl)-9′-hydroxy-2-(hydroxymethyl)-2′-methyl-1′,8′-dioxo-1′,2′,3′,8′-tetrahydrospiro[cyclopropane-1,4′-pyrido[1,2-a]pyrazine]-7′-carboxamide hydrochloride]: the EC50 was 30 nM.
Still for that read-out and setting: in the case of `CCOc1ccc(CNC(=O)c2cn3c(c(O)c2=O)C(=O)N(C)C[C@]32C[C@H]2COC)c(F)c1Cl` [Example T38, (1R,2R)-N-(3-chloro-4-ethoxy-2-fluorobenzyl)-9′-hydroxy-2-(methoxymethyl)-2′-methyl-1′,8′-dioxo-1′,2′,3′,8′-tetrahydrospiro[cyclopropane-1,4′-pyrido[1,2-a]pyrazine]-7′-carboxamide hydrochloride] it was 77 nM; in that of `CCN1C[C@@]2(C[C@H]2CO)n2cc(C(=O)NCc3cccc(Cl)c3F)c(=O)c(O)c2C1=O` [Example T29, (1S,2R)-N-(3-chloro-2-fluorobenzyl)-2′-ethyl-9′-hydroxy-2-(hydroxymethyl)-1′,8′-dioxo-1′,2′,3′,8′-tetrahydrospiro[cyclopropane-1,4′-pyrido[1,2-a]pyrazine]-7′-carboxamide hydrochloride], 4.8 nM.
In the case of `COC[C@@H]1C[C@]12CN(C(C)C)C(=O)c1c(O)c(=O)c(C(=O)NCc3cccc(Cl)c3F)cn12` [Example T6, (1R,2R)-N-(3-chloro-2-fluorobenzyl)-9′-hydroxy-2′-isopropyl-2-(methoxymethyl)-1′,8′-dioxo-1′,2′,3′,8′-tetrahydrospiro[cyclopropane-1,4′-pyrido[1,2-a]pyrazine]-7′-carboxamide hydrochloride], the EC50 amounted to 3.8 nM.
Turning to `CCOc1cc(Cl)c(F)c(CNC(=O)c2cn3c(c(O)c2=O)C(=O)N(C)C[C@@]32C[C@@H]2COC)c1` [Example T25, (1S,2S)-N-(3-chloro-5-ethoxy-2-fluorobenzyl)-9′-hydroxy-2-(methoxymethyl)-2′-methyl-1′,8′-dioxo-1′,2′,3′,8′-tetrahydrospiro[cyclopropane-1,4′-pyrido[1,2-a]pyrazine]-7′-carboxamide hydrochloride], the EC50 stood at 7 nM.

The experiment is the same for the next values; noted with them: MT-4 cells infected with HIV-1 NL4-3 strain (MOI 0.05), cultured 5 days, Cell Titer-Glo; read-out: antiviral activity (EC50).
Take `COC[C@H]1C[C@]2(CN(C)C(=O)c3c(O)c(=O)c(C(=O)NCc4cccc(Cl)c4F)cn32)C1` [Example 28, Monosodium 7′-(3-chloro-2-fluorobenzylcarbamoyl)-cis-3-(methoxymethyl)-2′-methyl-1′,8′-dioxo-1′,2′,3′,8′-tetrahydrospiro[cyclobutane-1,4′-pyrido[1,2-a]pyrazin]-9′-olate]: the concentration for a half-maximal effect (EC50) amounted to 2.2 nM.
